Experimental data reported in patent publication US20090062206A1 (UNIVERSITY OF SOUTH FLORIDA, priority 2006, published 2009).
Where two headings read alike, the source gives them in different places.

Assays:
[1] = tested on: human renal carcinoma cells; test: DNA synthesis by bromodeoxyuridine (BrdU) incorporation into renal carcinoma cells; format: cell-based; conditions: 1 μM, incubated 24 hours
Source text: To investigate whether these peptide hormones were inhibiting DNA synthesis, bromodeoxyuridine (BrdU) incorporation into the renal carcinoma cells was utilized as previously described from our laboratory. BrdU was from BD Bioscience, San Jose, Calif.

[2] = human or animal subjects; cited from earlier work
[3] = tested on: human renal-cell carcinoma cells (ATCC CRL-2175); test: Decrease in number of human renal-cell carcinoma cells (cell counting on coverslips); format: cell-based; conditions: for number of renal carcinoma cells remaining per high powered field: control 89±7 cells
Protocol: A cell line (ATCC number CRL-2175) of human renal-cell carcinoma cells were purchased from American Type Culture Collection (ATCC, Manassas, Va.). This renal cancer cell line was established by A. Leibovitz in 1972 from a renal-cell carcinoma removed from a person with blood type O, Rh+.
Propagation of these renal cancer cells was in Leibovitz's L-15 medium supplemented with 10% fetal bovine serum (Atlanta Biologicals, Lawrenceville, Ga.) at a temperature of 37° C. in a CO2 free environment as recommended by the ATCC. Cells were dispensed in new flasks with subculturing two to three times per week.
After the renal-cell carcinoma cells were subcultured for 24 hours they were then seeded to coverslips in 24-well plates (Nunclon™, Roskilde, Denmark) with 1 mL of the above media. There were 65,000 cells seeded to each coverslip. After 24 hours, the well plates were washed twice with phosphate-buffered saline to remove the fetal bovine serum. Removal of serum was carried out to completely remove all variables (EGF, etc.) present in serum in order that interpretation of any data obtained would be straightforward. After 24 hours of serum deprivation, media volume was reduced to 250 μL per well with, or without, the respective peptide hormones in dose-response curves with concentrations up to and including 100 μM (1% of this volume). Human renal carcinoma cells were then incubated for various periods of time [24, 48, 72, and 96 hours]. The number of renal carcinoma cells were then counted with a cell counter (Thomas Scientific Swedesboro, N. J.) evaluating ten fields of the microscope slide at x40 along the X-axis with an Olympus BH-2 microscope (Atlanta, Ga.). This evaluation was repeated on six separate occasions with the number of renal carcinoma cells reflecting 60 observations for each group, i.e., 60 observations for controls and 60 observations for each of the six groups with respective peptide hormones. The peptide hormones used in this investigation were from Phoenix Pharmaceuticals, Inc., Belmont, Calif. In the Results section, the number of cancer cells reported is the number of cells in each individual field. Ten fields were examined on each microscope slide. The results of the ten fields were pooled and the average of the ten fields is illustrated in the Results section.
The number of renal carcinoma cells after 24 hours without the addition of any of the peptide hormones averaged 89±7 cells per high powered field when ten fields of the coverslip were evaluated at ×40 along the X-axis with an Olympus BH2 microscope. This evaluation was repeated on six separate occasions, with the above number reflecting 60 observations by two independent investigators of the control group and each of the five groups with the addition of one of the peptide hormones. The same number of observations were done in a seventh group where four of the peptides were added together (each at 1 μM) to determine if they may have an additive effect.

NPR-A receptor = NPR-A receptor (Homo sapiens, UniProt P16066); conditions: cited from earlier work
Chain of NPR-A receptor (P16066 33-1061): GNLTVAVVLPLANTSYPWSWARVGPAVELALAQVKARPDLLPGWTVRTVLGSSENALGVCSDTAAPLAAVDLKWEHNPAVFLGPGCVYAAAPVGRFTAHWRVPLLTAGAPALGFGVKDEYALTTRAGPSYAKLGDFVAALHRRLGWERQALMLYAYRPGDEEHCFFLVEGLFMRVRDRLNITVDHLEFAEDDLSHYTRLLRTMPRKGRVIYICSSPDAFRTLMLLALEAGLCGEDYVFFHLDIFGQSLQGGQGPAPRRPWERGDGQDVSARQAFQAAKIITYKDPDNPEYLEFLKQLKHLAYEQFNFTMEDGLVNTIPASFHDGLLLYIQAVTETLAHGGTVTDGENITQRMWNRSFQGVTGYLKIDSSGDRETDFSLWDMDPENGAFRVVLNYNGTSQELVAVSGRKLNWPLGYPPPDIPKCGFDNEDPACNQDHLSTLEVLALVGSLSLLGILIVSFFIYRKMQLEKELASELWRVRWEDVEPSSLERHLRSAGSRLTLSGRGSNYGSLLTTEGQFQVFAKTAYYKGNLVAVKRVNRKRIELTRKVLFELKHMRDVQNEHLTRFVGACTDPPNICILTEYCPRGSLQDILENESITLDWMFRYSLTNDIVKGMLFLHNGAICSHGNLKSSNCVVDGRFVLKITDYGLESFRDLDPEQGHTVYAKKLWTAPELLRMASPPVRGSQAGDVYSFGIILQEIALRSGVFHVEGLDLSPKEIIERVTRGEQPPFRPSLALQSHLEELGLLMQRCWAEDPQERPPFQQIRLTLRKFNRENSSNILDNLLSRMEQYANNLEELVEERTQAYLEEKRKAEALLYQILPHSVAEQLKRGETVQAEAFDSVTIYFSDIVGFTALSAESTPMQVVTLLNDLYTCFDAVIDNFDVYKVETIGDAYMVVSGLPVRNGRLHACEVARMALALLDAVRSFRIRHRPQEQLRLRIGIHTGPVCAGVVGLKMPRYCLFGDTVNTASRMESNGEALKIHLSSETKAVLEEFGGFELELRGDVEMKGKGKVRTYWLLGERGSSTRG

NPR-C receptor = NPR-C receptor (Homo sapiens, UniProt P17342); conditions: cited from earlier work
Chain of NPR-C receptor (P17342 27-541): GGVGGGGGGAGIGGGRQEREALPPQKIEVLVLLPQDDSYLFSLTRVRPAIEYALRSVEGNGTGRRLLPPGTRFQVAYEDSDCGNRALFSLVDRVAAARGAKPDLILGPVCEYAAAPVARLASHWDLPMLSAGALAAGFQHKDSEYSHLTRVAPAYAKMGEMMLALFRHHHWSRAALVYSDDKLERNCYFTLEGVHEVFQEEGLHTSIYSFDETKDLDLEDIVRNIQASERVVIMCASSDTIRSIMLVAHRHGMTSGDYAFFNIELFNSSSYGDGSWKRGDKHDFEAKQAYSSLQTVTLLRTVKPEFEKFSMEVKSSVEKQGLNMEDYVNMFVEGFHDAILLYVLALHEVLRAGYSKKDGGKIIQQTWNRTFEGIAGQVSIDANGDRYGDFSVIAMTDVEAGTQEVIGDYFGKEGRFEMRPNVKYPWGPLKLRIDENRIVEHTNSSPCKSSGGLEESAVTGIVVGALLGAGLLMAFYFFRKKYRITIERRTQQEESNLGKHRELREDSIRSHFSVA

prostate adenocarcinoma = conditions: 1 μM; cited from earlier work
[4] = tested on: small-cell lung cancer cells; conditions: 1 μM; cited from earlier work
[5] = 1 μM, at 48 hours after 24 hour exposure
[6] = 1 μM, at 72 hours after 24 hour exposure
[7] = 1 μM, at 96 hours after 24 hour exposure
[8] = 10 μM, at 48 hours after 24 hour exposure
[9] = 10 μM, at 72 hours after 24 hour exposure
[10] = 10 μM, at 96 hours after 24 hour exposure
[11] = 100 μM, at 48 hours after 24 hour exposure
[12] = 100 μM, at 72 hours after 24 hour exposure
[13] = 100 μM, at 96 hours after 24 hour exposure

Compound | inhibition of DNA synthesis [1] [%] | side effect hypotension [2] | decrease in number of renal carcinoma cells [3, 5] [%] | decrease in number of renal carcinoma cells [3, 6] [%] | decrease in number of renal carcinoma cells [3, 7] [%] | decrease in number of renal carcinoma cells ([3]; 10 μM, 24 hours) [%] | decrease in number of renal carcinoma cells [3, 8] [%] | decrease in number of renal carcinoma cells [3, 9] [%] | decrease in number of renal carcinoma cells [3, 10] [%] | decrease in number of renal carcinoma cells ([3]; 100 μM, 24 hours) [%] | number of renal carcinoma cells remaining per high powered field ([3]; 100 μM, 24 hours) [cells] | decrease in number of renal carcinoma cells [3, 11] [%] | decrease in number of renal carcinoma cells [3, 12] [%] | decrease in number of renal carcinoma cells [3, 13] [%] | decrease in number of renal carcinoma cells ([3]; 1 μM, 24 hours) [%] | other results
CC[C@H](C)[C@@H]1NC(=O)[C@H](CCCNC(=N)N)NC(=O)[C@H](CC(=O)O)NC(=O)[C@H](CCSC)NC(=O)[C@H](CCCNC(=N)N)NC(=O)CNC(=O)CNC(=O)[C@H](Cc2ccccc2)NC(=O)[C@@H](NC(=O)[C@H](CO)NC(=O)[C@H](CO)NC(=O)[C@H](CCCNC(=N)N)NC(=O)[C@H](CCCNC(=N)N)NC(=O)[C@H](CC(C)C)NC(=O)[C@@H](N)CO)CSSC[C@@H](C(=O)N[C@@H](CC(N)=O)C(=O)N[C@@H](CO)C(=O)N[C@@H](Cc2ccccc2)C(=O)N[C@@H](CCCNC(=N)N)C(=O)N[C@@H](Cc2ccc(O)cc2)C(=O)O)NC(=O)CNC(=O)[C@H](CC(C)C)NC(=O)CNC(=O)[C@H](CO)NC(=O)[C@H](CCC(N)=O)NC(=O)[C@H](C)NC(=O)CNC1=O [ANP] | 77 | observed | – | – | – | – | – | – | – | – | – | – | – | – | – | –
LANP: long acting natriuretic peptide, peptide hormone within the 126 amino acid ANP prohormone (NPMYNAVSNADLMDFKNLLDHLEEKMPLED; Long-acting natriuretic peptide; UniProt P01160 26-55, looked up) | 70 | never | 30 | 30 | 24 | 55 | 50 | 47 | 39 | 70 | 26±2 | 70 | 70 | 61 | – | –
Urodilatin | 65 | – | 17 | 15 | 10 | 46 | 46 | 43 | 37 | 66 | 30±2 | 65 | 64 | 58 | 24 | cancer cells killed (maximum) ([3]; within 24 hours, concentration not given): up to 81%; binding curves compared with ANP (NPR-A receptor): superimposable with ANP; binding curves compared with ANP (NPR-A receptor; listed as urodilatin): nearly superimposable binding curves; binding curves compared with ANP (NPR-C receptor): superimposable with ANP; binding curves compared with ANP (NPR-C receptor; listed as urodilatin): nearly superimposable binding curves
kaliuretic peptide: peptide hormone within the 126 amino acid ANP prohormone synthesized in the heart (SSDRSALLKSKLRALLTAPR; Kaliuretic peptide; UniProt P01160 104-123, looked up) | 74 | never | 35 | 31 | 25 | 54 | 52 | 47 | 40 | 74 | 23±3 | 76 | 71 | 64 | 39 | decrease in cancer cell number (prostate adenocarcinoma): 30%; decrease in cancer cell number [4]: 30%
vessel dilator: peptide hormone within the 126 amino acid ANP prohormone synthesized in the heart (EVVPPQVLSEPNEEAGAALSPLPEVPPWTGEVSPAQR; Vessel dilator; UniProt P01160 56-92, looked up) | 84 | never | 55 | 51 | 43 | 62 | 66 | 64 | 55 | 81 | 17±4 | 81 | 80 | 68 | 59 | –
